Data set [1] addresses T1, hNav1.4-L443C/A444W Na+ channels (Homo sapiens, UniProt P35499, A444W/L443C).
T1 construct: full-length hNav1.4 cDNA inserted in the pRc/CMV vector; expressed in transfected cells; pRc/CMV vector
The data set is described as follows: Whole-cell patch clamp of hNav1.4-L443C/A444W mutant Na+ channels in stably transfected HEK293 cells. It counts as cell-based. Background: In patch-clamp work, channel activity is measured electrically.

Data set [2] has as its system pronase-treated Na+ channels. The following applies: cited from earlier work.
Another data set concerns IFM/QQQ mutant channels. The following applies: cited from earlier work.
Data set [3] addresses T2, rNav1.4 Na+ channels (wild-type) (Rattus norvegicus, UniProt P15390).
T2 construct: expressed in transfected cells; host or cells: HEK293t, transient, calcium phosphate; pcDNA1/Amp vector
The experiment in a line: Whole-cell patch clamp of wild-type rNav1.4 Na+ currents in transfected HEK293t cells. The class given is cell-based. The settings on record: for time for full recovery from flecainide block (dissociation): holding potential −140 mV, block developed after channel activation. More on the design: time constant of recovery from inactivated block / block of peak Na+ currents (resting state): dose or concentration left out as unconfirmed.

Data set [4] concerns the target T3, rNav1.4-L435W/L437C/A438W mutant channels (Rattus norvegicus, UniProt P15390, A438W/L435W/L437C).
T3 construct: expressed in transfected cells; host or cells: HEK293t, transient, calcium phosphate; pcDNA1/Amp vector
The data set is described as follows: Whole-cell patch clamp of inactivation-deficient rNav1.4-L435W/L437C/A438W mutant channels in HEK293t cells. It counts as cell-based.

For data set [5] the following is noted: as antiarrhythmic agent; cited from earlier work.
The mark [6] stands for this setting: 10 μM, external, 100-ms test pulse at +50 mV.
Where [7] appears, read: 30 μM flecainide, 10 s conditioning prepulses -180 to -10 mV, test +30 mV.

Where “and” joins values, the source holds several entries; their conditions need not be identical. Equal values may be shown once. Read-outs that look alike come from different tables or passages of the source.

T1 sequence (P35499 whole entry L443C/A444W): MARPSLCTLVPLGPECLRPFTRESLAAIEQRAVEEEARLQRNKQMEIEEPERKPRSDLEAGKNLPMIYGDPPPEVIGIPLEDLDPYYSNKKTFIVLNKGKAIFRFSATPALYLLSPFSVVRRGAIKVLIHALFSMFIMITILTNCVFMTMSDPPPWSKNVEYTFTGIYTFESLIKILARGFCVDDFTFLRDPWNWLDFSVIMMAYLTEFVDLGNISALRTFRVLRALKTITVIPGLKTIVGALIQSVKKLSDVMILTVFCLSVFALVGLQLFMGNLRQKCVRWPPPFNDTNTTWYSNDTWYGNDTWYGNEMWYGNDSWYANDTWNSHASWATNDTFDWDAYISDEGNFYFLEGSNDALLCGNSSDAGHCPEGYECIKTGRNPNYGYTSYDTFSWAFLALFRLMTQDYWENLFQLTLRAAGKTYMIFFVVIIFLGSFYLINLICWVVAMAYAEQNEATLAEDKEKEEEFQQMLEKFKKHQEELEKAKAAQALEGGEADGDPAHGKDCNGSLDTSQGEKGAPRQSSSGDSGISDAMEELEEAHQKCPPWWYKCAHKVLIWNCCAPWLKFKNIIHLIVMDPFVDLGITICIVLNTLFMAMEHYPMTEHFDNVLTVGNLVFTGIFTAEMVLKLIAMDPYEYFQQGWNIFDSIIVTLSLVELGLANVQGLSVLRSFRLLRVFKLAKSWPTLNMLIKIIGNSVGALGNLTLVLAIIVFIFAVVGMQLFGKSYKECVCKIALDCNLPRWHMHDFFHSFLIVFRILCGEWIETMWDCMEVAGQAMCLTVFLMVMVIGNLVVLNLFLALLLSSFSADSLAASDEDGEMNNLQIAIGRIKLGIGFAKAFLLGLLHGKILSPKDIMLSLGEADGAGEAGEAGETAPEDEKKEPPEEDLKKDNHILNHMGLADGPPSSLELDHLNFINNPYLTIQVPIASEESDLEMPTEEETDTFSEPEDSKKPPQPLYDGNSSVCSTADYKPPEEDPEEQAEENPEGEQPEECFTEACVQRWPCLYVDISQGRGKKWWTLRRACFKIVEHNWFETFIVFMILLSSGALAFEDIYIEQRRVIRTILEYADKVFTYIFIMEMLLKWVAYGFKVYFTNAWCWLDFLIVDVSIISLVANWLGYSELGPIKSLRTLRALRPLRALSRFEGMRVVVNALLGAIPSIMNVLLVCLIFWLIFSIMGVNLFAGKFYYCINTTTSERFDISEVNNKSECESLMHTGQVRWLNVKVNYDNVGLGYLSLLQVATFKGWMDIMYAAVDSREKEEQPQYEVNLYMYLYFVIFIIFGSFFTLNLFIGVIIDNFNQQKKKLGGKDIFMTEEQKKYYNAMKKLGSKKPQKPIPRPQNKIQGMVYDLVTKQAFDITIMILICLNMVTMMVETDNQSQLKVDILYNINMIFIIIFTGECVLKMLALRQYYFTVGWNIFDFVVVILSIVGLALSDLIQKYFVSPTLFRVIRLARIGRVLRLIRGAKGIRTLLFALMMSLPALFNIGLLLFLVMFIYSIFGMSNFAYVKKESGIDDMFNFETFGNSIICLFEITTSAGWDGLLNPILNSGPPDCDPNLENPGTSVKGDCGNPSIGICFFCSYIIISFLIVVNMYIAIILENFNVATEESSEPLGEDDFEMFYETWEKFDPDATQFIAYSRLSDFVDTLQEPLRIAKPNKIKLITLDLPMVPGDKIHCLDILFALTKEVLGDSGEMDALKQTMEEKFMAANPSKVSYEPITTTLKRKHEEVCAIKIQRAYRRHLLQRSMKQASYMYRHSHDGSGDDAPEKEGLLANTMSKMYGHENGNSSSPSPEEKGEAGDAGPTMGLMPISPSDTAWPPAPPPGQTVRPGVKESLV
T3 sequence (P15390 whole entry L435W/L437C/A438W): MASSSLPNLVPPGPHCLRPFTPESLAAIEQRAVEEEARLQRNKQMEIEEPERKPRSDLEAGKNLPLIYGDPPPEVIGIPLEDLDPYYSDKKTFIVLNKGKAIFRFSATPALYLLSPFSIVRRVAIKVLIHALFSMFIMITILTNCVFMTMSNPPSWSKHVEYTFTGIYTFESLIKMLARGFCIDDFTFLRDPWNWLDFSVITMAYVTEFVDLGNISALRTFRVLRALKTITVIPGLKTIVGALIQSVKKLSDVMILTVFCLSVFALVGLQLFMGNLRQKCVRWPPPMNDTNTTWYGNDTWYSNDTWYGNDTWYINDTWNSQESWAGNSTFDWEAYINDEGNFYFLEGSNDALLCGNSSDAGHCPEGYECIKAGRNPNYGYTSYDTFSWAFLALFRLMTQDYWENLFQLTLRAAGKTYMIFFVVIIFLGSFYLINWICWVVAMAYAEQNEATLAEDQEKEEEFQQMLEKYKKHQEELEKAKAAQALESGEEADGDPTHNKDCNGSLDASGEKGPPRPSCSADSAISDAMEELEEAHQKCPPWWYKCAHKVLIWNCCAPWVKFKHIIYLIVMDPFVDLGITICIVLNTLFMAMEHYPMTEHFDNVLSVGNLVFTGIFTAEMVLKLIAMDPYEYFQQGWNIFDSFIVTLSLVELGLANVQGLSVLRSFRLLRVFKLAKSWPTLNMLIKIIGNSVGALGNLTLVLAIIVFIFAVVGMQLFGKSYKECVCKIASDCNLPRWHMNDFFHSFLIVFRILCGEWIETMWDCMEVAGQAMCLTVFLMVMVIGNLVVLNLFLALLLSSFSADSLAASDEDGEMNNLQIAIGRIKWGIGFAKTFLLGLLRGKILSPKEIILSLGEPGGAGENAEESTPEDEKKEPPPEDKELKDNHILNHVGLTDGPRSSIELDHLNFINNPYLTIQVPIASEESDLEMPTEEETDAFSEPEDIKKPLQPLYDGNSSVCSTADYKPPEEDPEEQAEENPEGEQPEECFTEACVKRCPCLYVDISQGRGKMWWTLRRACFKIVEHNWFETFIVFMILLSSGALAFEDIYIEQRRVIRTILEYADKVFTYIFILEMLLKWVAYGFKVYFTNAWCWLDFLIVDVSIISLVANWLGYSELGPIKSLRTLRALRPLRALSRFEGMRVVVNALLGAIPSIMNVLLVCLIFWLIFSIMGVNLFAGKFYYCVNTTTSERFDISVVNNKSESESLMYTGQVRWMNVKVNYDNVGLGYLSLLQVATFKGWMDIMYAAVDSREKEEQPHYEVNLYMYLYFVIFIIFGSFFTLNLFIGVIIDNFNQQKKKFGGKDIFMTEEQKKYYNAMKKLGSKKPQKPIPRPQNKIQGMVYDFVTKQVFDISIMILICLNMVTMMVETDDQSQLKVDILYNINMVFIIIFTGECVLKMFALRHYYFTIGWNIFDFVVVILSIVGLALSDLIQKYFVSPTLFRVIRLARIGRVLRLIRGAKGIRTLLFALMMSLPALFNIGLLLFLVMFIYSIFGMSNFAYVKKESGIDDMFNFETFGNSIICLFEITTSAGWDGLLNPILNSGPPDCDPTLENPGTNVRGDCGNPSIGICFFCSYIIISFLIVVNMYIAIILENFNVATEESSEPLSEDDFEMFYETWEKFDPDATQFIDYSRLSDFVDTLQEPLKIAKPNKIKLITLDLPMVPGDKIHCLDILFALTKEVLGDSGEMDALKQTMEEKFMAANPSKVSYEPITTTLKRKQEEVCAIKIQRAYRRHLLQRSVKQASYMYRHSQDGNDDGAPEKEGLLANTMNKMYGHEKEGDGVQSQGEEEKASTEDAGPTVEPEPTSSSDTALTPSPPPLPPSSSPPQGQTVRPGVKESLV
T3 sequence (Q00954 19-218 partner): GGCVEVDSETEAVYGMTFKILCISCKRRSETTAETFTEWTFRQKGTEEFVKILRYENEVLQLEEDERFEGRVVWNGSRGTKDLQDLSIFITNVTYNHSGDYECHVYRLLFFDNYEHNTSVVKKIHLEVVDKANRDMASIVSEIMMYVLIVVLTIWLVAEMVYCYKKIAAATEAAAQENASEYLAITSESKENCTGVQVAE
T2 sequence (P15390 whole entry): as the sequence (P15390 whole entry L435W/L437C/A438W) above, with W435L, C437L, W438A counted along it
T2 sequence (Q00954 19-218 partner): as the sequence (Q00954 19-218 partner) above

With `CCCNC[C@H](O)COc1ccccc1C(=O)CCc1ccccc1.Cl` [(S)-propafenone, (S)-Propafenone-HCl], the “inhibition of peak Na+ currents” value in data set [1] (10 μM, external) is on record as “also inhibited, but to a lesser extent”. The “block of persistent late Na+ currents” value in data set [1] (setting [6]) is recorded as “potently blocks”.
For the molecule `CC[N+](CC)(CC)CC(=O)Nc1c(C)cccc1C` [QX-314], in data set [2], the “block of inactivation-deficient Na+ currents” value is listed as “does not block”.
For orientation: Hill coefficient means the slope factor of the fitted curve. Take `NC1=N[C@H](O)[C@H]2[C@H]3O[C@]4(O)O[C@@H]([C@@H](O)[C@@]2(N1)[C@@H]4O)[C@]3(O)CO` [TTX, Tetrodotoxin]: in data set [1], the Hill coefficient was 1.09±0.04 and the “time-dependent block by TTX” value is listed as “no evidence of a time-dependent block”.
Regarding `CCCCc1oc2ccccc2c1C(=O)c1cc(I)c(OCCN(CC)CC)c(I)c1` [amiodarone], in data set [1], the “block of persistent late Na+ currents” value is “Most, if not all, persistent late currents were inhibited”; the “inhibition of peak Na+ currents” value is reported as “also reduced slowly, but again to a lesser extent”; the “time to steady-state block of late Na+ currents (wash-in)” value is 15 min; the wash-out of block entry is “slow and incomplete”.
In the case of `CC(C)N(CCC(C(N)=O)(c1ccccc1)c1ccccn1)C(C)C` (stereo not drawn) [disopyramide], in the data set on IFM/QQQ mutant channels, the “open-channel block in IFM/QQQ mutant channels” value was “weak open-channel block”.
As usually defined, the IC50 is the concentration at which inhibition is half-maximal. On to `O=C(NCC1CCCCN1)c1cc(OCC(F)(F)F)ccc1OCC(F)(F)F` (stereo not drawn) [flecainide], for which the “block of persistent late Na+ currents” value in data set [1] (setting [6]) is recorded as “strong block”. For the same molecule, in the data set with IFM/QQQ mutant channels, the “open-channel block in IFM/QQQ mutant channels” value is given as “weak open-channel block”. The half-maximal inhibitory concentration (IC50) in data set [3] is about 400 µM; in data set [4] (conditioning pulse −50 mV, 10 s, read-out: IC50 with a conditioning pulse at −50 mV for 10 s (estimated block at the peak current)), 4.1 ± 0.1 µM; in data set [4] (open channel, read-out: IC50 for the open block (estimated block at the end of the pulse)), 0.61 ± 0.07 µM; in data set [4] (resting channel, holding −140 mV, read-out: IC50 for the resting block (estimated block at the peak current)), 208 µM and 307 µM. Further, the “time constant of recovery from inactivated block” value in data set [3] is over 100 s. Also, in data set [3] (setting [7]), the “V0.5 of Boltzmann fit, voltage dependence of flecainide block” value was −57.3±2.7 mV. The “kE (slope factor) of Boltzmann fit, voltage dependence of flecainide block” value in data set [3] (setting [7]) came out at 17.6±2.1 mV. In addition, in data set [3] (30 mM flecainide, +50 mV pulses at 30-s interval), the “time for flecainide block to reach steady state” value was in the range of 5 to 7 min. For the same molecule, the inhibition at 30000 µM in data set [3] (HEK-293T, read-out: peak currents inhibited after flecainide block reached steady state) is about 50%. Also, in data set [3] (at −50 mV), the “time constant of development of the inactivated block” value was 10.9 ± 1.3 s. Moreover, the “block of peak Na+ currents (resting state)” value in data set [3] (cell not stimulated repetitively in 1,000 s) is about 20%. For the same molecule, the “time for full recovery from flecainide block (dissociation)” value was ≥ 1,000 s in data set [3] and “up to 10,000 s” in data set [3] (listed as Flecainide). Moreover, in data set [3] (repetitive pulses at 5 Hz for 60 pulses), the additional use-dependent block was about 50%. In addition, the “difference between the high and low flecainide affinities” value in data set [3] (−20 mV vs −140 mV conditioning) was “less than 3 fold”. Also, the “time to steady state block at each concentration” value in data set [4] (140 ms test pulse to +30 mV every 30 seconds, 0.1 to 30 μM) is at most 5 min. Besides, in data set [4] (at +50 mV, 0.1 to 30 μM flecainide), the “block of the maintained Na+ currents” value is reported as “strong time-dependent block”. Moreover, the “time constant of recovery from the open channel block” value in data set [4] (at −140 mV) worked out at 11.2 s. The Kd in data set [4] (from off-rate/on-rate, read-out: calculated dissociation constant (open channel)) was 0.81 µM. Moreover, the “difference of resting and open channel affinities” value in data set [4] (inactivation-deficient mutant channels) was about 500 fold. Besides, the “on-rate constant with the open channel” value in data set [4] (test pulse +30 mV, slope of 1/τ vs concentration) was found to be 1.49e+07 M⁻¹ s⁻¹. The “off-rate constant with the open channel” value in data set [4] (test pulse +30 mV, y-intercept of 1/τ vs concentration) turned out to be 12.2 s⁻¹.
Turning to `Cc1cccc(C)c1OCC(C)N` (stereo not drawn) [mexiletine], the “block of persistent late Na+ currents” value in data set [1] (setting [6]) is on record as “strong block”. Moreover, the therapeutic plasma concentration in data set [5] is 2.8 to 11.2 µM.
As to batrachotoxin [BTX], in data set [1] (5 μM BTX in pipette solution), the “activation threshold of BTX-modified Na+ currents” value is on record as −80 mV; the “effect on fast and slow inactivation” value is “completely eliminates the fast and the slow inactivation”. Further, the “shift of activation threshold” value in data set [1] (5 μM BTX in pipette solution, after 400 repetitive pulses at +50 mV, 1 Hz) was about −40 mV.

(Values after patent US7094600B2, “Screen for sodium channel modulators” (The Research Foundation of State University of New York, priority 2003, dated 2006).)
